Source: the NIST ThermoML archive (doi:10.1021/acs.jced.6b00332)

Assay: mn = molality of the nth substance listed, in mol/kg
Details: 100 kPa, Liquid; for speed of sound: Frequency=3 MHz, Sing-around technique in a fixed-path interferometer; for mass density: Vibrating tube method

CCCC[N+](CCCC)(CCCC)CCCC.[Br-] [tetrabutylammonium bromide] + O
m1 = 0.01
Details	mass density [kg/m3]	speed of sound [m/s]
293.15 K	998.57	1485.3
298.15 K	997.35	1499.2
303.15 K	995.88	1511.4
308.15 K	994.29	1521.9
313.15 K	992.33	1531
318.15 K	990.43	1538.6

CCCCCCCCCCCC[N+](C)(C)C.[Br-] [dodecyltrimethylammonium bromide] + O
Details	mass density [kg/m3]	speed of sound [m/s]
293.15 K, m1 = 0.003	998.31	1483.3
293.15 K, m1 = 0.006	998.37	1484.2
293.15 K, m1 = 0.009	998.43	1484.9
293.15 K, m1 = 0.012	998.49	1485.6
293.15 K, m1 = 0.015	998.54	1486.3
293.15 K, m1 = 0.018	998.6	1486.7
293.15 K, m1 = 0.021	998.65	1486.8
293.15 K, m1 = 0.024	998.7	1486.9
293.15 K, m1 = 0.027	998.75	1487
293.15 K, m1 = 0.03	998.81	1487
293.15 K, m1 = 0.033	998.87	1487.1
293.15 K, m1 = 0.036	998.92	1487.1
293.15 K, m1 = 0.039	998.95	1487.1
293.15 K, m1 = 0.042	999	1487.1
293.15 K, m1 = 0.045	999.05	1487
298.15 K, m1 = 0.003	997.2	1497.2
298.15 K, m1 = 0.006	997.26	1497.9
298.15 K, m1 = 0.009	997.32	1498.6
298.15 K, m1 = 0.012	997.37	1499.2
298.15 K, m1 = 0.015	997.43	1499.9
298.15 K, m1 = 0.018	997.49	1500.2
298.15 K, m1 = 0.021	997.53	1500.3
298.15 K, m1 = 0.024	997.58	1500.3
298.15 K, m1 = 0.027	997.63	1500.4
298.15 K, m1 = 0.03	997.67	1500.4
298.15 K, m1 = 0.033	997.71	1500.5
298.15 K, m1 = 0.036	997.75	1500.4
298.15 K, m1 = 0.039	997.79	1500.5
298.15 K, m1 = 0.042	997.82	1500.4
298.15 K, m1 = 0.045	997.85	1500.5
303.15 K, m1 = 0.003	995.71	1509.7
303.15 K, m1 = 0.006	995.76	1510.3
303.15 K, m1 = 0.009	995.82	1511
303.15 K, m1 = 0.012	995.87	1511.6
303.15 K, m1 = 0.015	995.92	1512
303.15 K, m1 = 0.018	995.97	1512.2
303.15 K, m1 = 0.021	996.02	1512.2
303.15 K, m1 = 0.024	996.07	1512.2
303.15 K, m1 = 0.027	996.11	1512.2
303.15 K, m1 = 0.03	996.16	1512.2
303.15 K, m1 = 0.033	996.21	1512.2
303.15 K, m1 = 0.036	996.24	1512.2
303.15 K, m1 = 0.039	996.29	1512.3
303.15 K, m1 = 0.042	996.32	1512.2
303.15 K, m1 = 0.045	996.36	1512.3
308.15 K, m1 = 0.003	994.26	1520.3
308.15 K, m1 = 0.006	994.31	1520.9
308.15 K, m1 = 0.009	994.36	1521.5
308.15 K, m1 = 0.012	994.41	1522
308.15 K, m1 = 0.015	994.46	1522.6
308.15 K, m1 = 0.018	994.51	1522.6
308.15 K, m1 = 0.021	994.55	1522.6
308.15 K, m1 = 0.024	994.59	1522.6
308.15 K, m1 = 0.027	994.63	1522.6
308.15 K, m1 = 0.03	994.67	1522.5
308.15 K, m1 = 0.033	994.72	1522.5
308.15 K, m1 = 0.036	994.77	1522.5
308.15 K, m1 = 0.039	994.79	1522.5
308.15 K, m1 = 0.042	994.82	1522.6
308.15 K, m1 = 0.045	994.84	1522.5
313.15 K, m1 = 0.003	992.29	1529.4
313.15 K, m1 = 0.006	992.33	1529.9
313.15 K, m1 = 0.009	992.38	1530.4
313.15 K, m1 = 0.012	992.42	1530.9
313.15 K, m1 = 0.015	992.47	1531.4
313.15 K, m1 = 0.018	992.51	1531.5
313.15 K, m1 = 0.021	992.55	1531.4
313.15 K, m1 = 0.024	992.59	1531.4
313.15 K, m1 = 0.027	992.63	1531.3
313.15 K, m1 = 0.03	992.67	1531.3
313.15 K, m1 = 0.033	992.71	1531.2
313.15 K, m1 = 0.036	992.77	1531.3
313.15 K, m1 = 0.039	992.81	1531.3
313.15 K, m1 = 0.042	992.87	1531.3
313.15 K, m1 = 0.045	992.9	1531.2
318.15 K, m1 = 0.003	990.28	1536.3
318.15 K, m1 = 0.006	990.33	1536.7
318.15 K, m1 = 0.009	990.37	1537.2
318.15 K, m1 = 0.012	990.39	1537.8
318.15 K, m1 = 0.015	990.42	1538.2
318.15 K, m1 = 0.018	990.45	1538.4
318.15 K, m1 = 0.021	990.48	1538.6
318.15 K, m1 = 0.024	990.52	1538.7
318.15 K, m1 = 0.027	990.55	1538.7
318.15 K, m1 = 0.03	990.57	1538.7
318.15 K, m1 = 0.033	990.61	1538.9
318.15 K, m1 = 0.036	990.64	1538.9
318.15 K, m1 = 0.039	990.67	1539
318.15 K, m1 = 0.042	990.7	1539.1
318.15 K, m1 = 0.045	990.72	1539.1

CCCCC[N+](CCCCC)(CCCCC)CCCCC.[Br-] [tetrapentylammonium bromide] + O
m1 = 0.01
Details	mass density [kg/m3]	speed of sound [m/s]
293.15 K	998.34	1485.3
298.15 K	997	1499.1
303.15 K	995.7	1511.2
308.15 K	994.05	1521.6
313.15 K	991.93	1530.5
318.15 K	990.16	1537.9
